In US20100222396A1 (Novartis AG, priority 2009, published 2010):
pKd: −log10 of the molar value.

Legend:
[1] = target: T1, human orexin 2 receptor (hOx2R) (Homo sapiens, UniProt O43614); assay: Radioligand binding assay ([125I]orexin A competition), hOx2R; details: CHO or HEK cell membranes, 1 h room temperature
T1 construct: expressed in transfected cells
T1 sequence (O43614 1-444): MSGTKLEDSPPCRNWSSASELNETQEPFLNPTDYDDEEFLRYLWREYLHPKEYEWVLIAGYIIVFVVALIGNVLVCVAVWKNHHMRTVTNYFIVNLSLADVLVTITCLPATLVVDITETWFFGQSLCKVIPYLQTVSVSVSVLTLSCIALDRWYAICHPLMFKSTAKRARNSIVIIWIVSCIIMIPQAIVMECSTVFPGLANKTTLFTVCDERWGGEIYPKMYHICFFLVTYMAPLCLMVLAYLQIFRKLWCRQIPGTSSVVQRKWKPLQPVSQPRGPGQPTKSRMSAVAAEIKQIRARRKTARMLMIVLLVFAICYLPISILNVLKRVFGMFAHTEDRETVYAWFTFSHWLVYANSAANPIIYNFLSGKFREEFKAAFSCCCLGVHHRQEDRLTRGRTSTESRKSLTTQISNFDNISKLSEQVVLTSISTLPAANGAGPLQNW
Procedure, shortened: (§1)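 Membranes from CHO or HEK cells expressing the human receptor, incubated 1 h at room temperature with […] [125I]orexin A and compound in HEPES pH 7.5 buffer with BSA, MgCl2, CaCl2 and tween.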

[2] = target: T2, human orexin 1 receptor (hOx1R) (Homo sapiens, UniProt O43613); assay: Radioligand binding assay ([125I]orexin A competition), hOx1R; details: CHO or HEK cell membranes, 1 h room temperature
T2 construct: expressed in transfected cells
T2 sequence (O43613 1-425): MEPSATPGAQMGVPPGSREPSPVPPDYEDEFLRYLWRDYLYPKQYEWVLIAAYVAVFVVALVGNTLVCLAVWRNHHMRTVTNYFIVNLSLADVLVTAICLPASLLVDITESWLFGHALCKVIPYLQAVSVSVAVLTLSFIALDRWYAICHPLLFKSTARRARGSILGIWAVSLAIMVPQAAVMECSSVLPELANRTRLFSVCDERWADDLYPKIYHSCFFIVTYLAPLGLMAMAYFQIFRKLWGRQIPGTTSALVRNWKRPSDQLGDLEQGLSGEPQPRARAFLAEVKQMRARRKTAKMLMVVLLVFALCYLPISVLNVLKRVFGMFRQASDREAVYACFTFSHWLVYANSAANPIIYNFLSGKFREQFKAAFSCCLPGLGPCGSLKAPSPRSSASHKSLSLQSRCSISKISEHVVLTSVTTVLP
Procedure, shortened: as §1

[3] = target: T2, human orexin 1 receptor (hOx1R); assay: Calcium accumulation in cells (FLIPR), antagonism of orexin A, hOx1R; format: cell-based; details: for inhibition at 10 µM: measured at a concentration of 10 μM of compound (cells marked ^a); for pKd: cells expressing human orexin 1 receptor, IC50 vs orexin A converted by Cheng and Prusoff correction
Procedure, shortened: (§2)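 Serum-starved receptor-expressing cells were loaded with Fluo-4-AM (2 μM) plus probenecid (0.1 mM) in HEPES buffer, pH 7.4, with 1% BSA, and Ca2+ fluorescence was read on FLIPR. Compounds (10^−9–10^−5 M) were added first, and orexin A was added one hour later to measure antagonism.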

[4] = target: T1, human orexin 2 receptor (hOx2R); assay: Calcium accumulation in cells (FLIPR), antagonism of orexin A, hOx2R; format: cell-based; details: for pKd: cells expressing human orexin 2 receptor, IC50 vs orexin A converted by Cheng and Prusoff correction
Procedure, shortened: as §2

SMILES	pKd [1]	pKd [2]	inhibition at 10 µM [3] [%]	pKd [4]	pKd [3]	inhibition at 10 µM ([4]; measured at a concentration of 10 μM of compound (cells marked ^a)) [%]
CN(C(=O)c1cc(C(F)(F)F)cc(C(F)(F)F)c1)C(CCNC(=O)c1ccccc1)Cc1ccccc1 (stereo not shown) [Example 17, N-(3-Benzoylamino-1-benzyl-propyl)-N-methyl-3,5-bis-trifluoromethyl-benzamide]	6.97	5.06	36	7.39	–	–
CN(C(=O)c1ccc2c(c1)OCO2)[C@H](CCNC(=O)c1ccccn1)Cc1ccc(F)cc1 [Example 51, Pyridine-2-carboxylic acid [(S)-3-[(benzo[1,3]dioxole-5-carbonyl)-methyl-amino]-4-(4-fluoro-phenyl)-butyl]-amide]	5.94	5.45	16	6.10	–	–
CN(C(=O)c1ccccc1)[C@@H](CCNC(=O)c1ccccn1)Cc1ccccc1 [Example 68, Pyridine-2-carboxylic acid [(R)-3-(benzoyl-methyl-amino)-4-phenyl-butyl]-amide]	5.12	< 5.00	–	5.63	5.45	–
Cc1cc(C)cc(C(=O)N(C)[C@H](CCNC(=O)c2ccccn2)Cc2ccccc2)c1 [Example 97, Pyridine-2-carboxylic acid {(S)-3-[(3,5-dimethyl-benzoyl)-methyl-amino]-4-phenyl-butyl}-amide]	7.52	7.34	–	7.41	6.73	–
CN(C(=O)c1ccccc1)[C@H](CCNC(=O)c1ccccn1)Cc1ccc(F)cc1 [Example 66, Pyridine-2-carboxylic acid [(S)-3-(benzoyl-methyl-amino)-4-(4-fluoro-phenyl)-butyl]-amide]	5.15	< 5.00	0	–	–	33
CN(C(=O)c1ccccc1)[C@H](CCNC(=O)c1cccc2c1OCC2)Cc1ccccc1 [Example 67, 2,3-Dihydro-benzofuran-7-carboxylic acid [(S)-3-(benzoyl-methyl-amino)-4-phenyl-butyl]-amide]	6.94	5.96	33	6.74	–	–
CCN(C(=O)c1cc(C(F)(F)F)cc(C(F)(F)F)c1)[C@H](CCNC(=O)c1ccccn1)Cc1ccccc1 [Example 10, Pyridine-2-carboxylic acid {(S)-3-[(3,5-bis-trifluoromethyl-benzoyl)-ethyl-amino]-4-phenyl-butyl}-amide]	7.23	5.49	–	7.57	5.87	–
COc1cccc(C(=O)N(C)[C@H](CCNC(=O)c2nc3ccccc3n2C)Cc2ccccc2)c1 [Example 79, 1-Methyl-1H-benzoimidazole-2-carboxylic acid {(S)-3-[(3-methoxy-benzoyl)-methyl-amino]-4-phenyl-butyl}-amide]	7.52	7.14	–	7.92	6.65	–
CN(C(=O)c1cc(C(F)(F)F)cc(C(F)(F)F)c1)[C@H](CCNC(=O)c1nc2ccccc2n1C)Cc1ccccc1 [Example 12, 1-Methyl-1H-benzoimidazole-2-carboxylic acid {(S)-3-[(3,5-bis-trifluoromethyl-benzoyl)-methyl-amino]-4-phenyl-butyl}-amide]	7.01	5.97	–	7.40	6.36	–
CN(C(=O)c1ccc2c(c1)OC(F)(F)O2)[C@H](CCNC(=O)c1cccn1C)Cc1ccccc1 [Example 107, 1-Methyl-1H-pyrrole-2-carboxylic acid {(S)-3-[(2,2-difluoro-benzo[1,3]dioxole-5-carbonyl)-methyl-amino]-4-phenyl-butyl}-amide]	6.79	5.60	–	7.27	5.97	–
CN(C(=O)c1ccc2ccccc2c1)[C@H](CCNC(=O)c1ccccn1)Cc1ccc(Cl)cc1 [Example 53, Pyridine-2-carboxylic acid {(S)-4-(4-chloro-phenyl)-3-[methyl-(naphthalene-2-carbonyl)-amino]-butyl}-amide]	5.84	5.47	13	6.13	–	–
CN(C(=O)c1ccc(C(F)(F)F)cc1)[C@H](CCNC(=O)c1ccccn1)Cc1ccccc1 [Example 73, Pyridine-2-carboxylic acid {(S)-3-[methyl-(4-trifluoromethyl-benzoyl)-amino]-4-phenyl-butyl}-amide]	< 5.00	< 5.00	–	5.88	5.72	–
COc1ccc(C(=O)N(C)[C@H](CCNC(=O)c2ccccn2)Cc2ccccc2)cc1 [Example 42, Pyridine-2-carboxylic acid {(S)-3-[(4-methoxy-benzoyl)-methyl-amino]-4-phenyl-butyl}-amide]	6.16	5.76	–	6.08	6.04	–
Cc1nc(C(=O)NCC[C@H](Cc2ccccc2)N(C)C(=O)c2ccccc2)c(-c2ccccc2F)s1 [Example 27, 5-(2-Fluoro-phenyl)-2-methyl-thiazole-4-carboxylic acid [(S)-3-(benzoyl-methyl-amino)-4-phenyl-butyl]-amide]	6.47	6.11	–	7.96	7.12	–
CN(C(=O)c1ccc(C(F)(F)F)c(C(F)(F)F)c1)[C@H](CCNC(=O)c1ccccn1)Cc1ccccc1 [Example 77, Pyridine-2-carboxylic acid {(8)-3-[(3,4-bis-trifluoromethyl-benzoyl)-methyl-amino]-4-phenyl-butyl}-amide]	5.43	5.07	25	6.24	–	–
COc1ccc(C(=O)N(C)[C@H](CCNC(=O)c2ccccn2)Cc2ccccc2)cc1OC [Example 9, Pyridine-2-carboxylic acid {(S)-3-[(3,4-dimethoxy-benzoyl)-methyl-amino]-4-phenyl-butyl}-amide]	7.34	6.32	–	6.84	5.85	–
Cc1nc2sccn2c1C(=O)NCC[C@H](Cc1ccccc1)N(C)C(=O)c1ccccc1 [Example 33, 6-Methyl-imidazo[2,1-b]thiazole-5-carboxylic acid [(S)-3-(benzoyl-methyl-amino)-4-phenyl-butyl]-amide]	6.35	5.24	–	7.12	5.71	–
CN(C(=O)c1ccc2ccccc2c1)[C@H](CCNC(=O)c1ccccn1)Cc1ccc(F)cc1 [Example 58, Pyridine-2-carboxylic acid {(S)-4-(4-fluoro-phenyl)-3-[methyl-(naphthalene-2-carbonyl)-amino]-butyl}-amide]	5.46	5.64	1	5.97	–	–
CN(C(=O)c1ccc2[nH]ccc2c1)[C@H](CCNC(=O)c1nc2ccccc2n1C)Cc1ccccc1 [Example 81, 1-Methyl-1H-benzoimidazole-2-carboxylic acid {(S)-3-[(1H-indole-5-carbonyl)-methyl-amino]-4-phenyl-butyl}-amide]	7.64	8.22	–	7.89	7.92	–
CCCN(C(=O)c1cccc2c1OCO2)[C@H](CCNC(=O)c1ccccn1)Cc1ccccc1 [Example 59, Pyridine-2-carboxylic acid {(S)-3-[(benzo[1,3]dioxole-4-carbonyl)-propyl-amino]-4-phenyl-butyl}-amide]	5.44	5.44	–	6.25	5.69	–
CN(C(=O)c1cccc2[nH]ccc12)[C@H](CCNC(=O)c1ccccn1)Cc1ccccc1 [Example 11, 1H-Indole-4-carboxylic acid {(S)-1-benzyl-3-[(pyridine-2-carbonyl)-amino]-propyl}-methyl-amide]	7.28	7.68	–	7.80	7.66	–
CN(C(=O)c1cccc(Br)c1)[C@H](CCNC(=O)c1nc2ccccc2n1C)Cc1ccccc1 [Example 102, 1-Methyl-1H-benzoimidazole-2-carboxylic acid {(S)-3-[(3-bromo-benzoyl)-methyl-amino]-4-phenyl-butyl}-amide]	8.70	7.55	–	9.00	7.74	–
